# Key:
# Nannizzia gypsea = assay: checkerboard drug interaction (FICI, MICc);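 note: simplified diagonal checkerboard screen pairing antifungals with FPPS inhibitors, FICI derived using the Loewe additivity model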
# Method: (§1) Drug interactions between antifungals and FPPS inhibitors were investigated using a simplified checkerboard diagonal screening method ([45]). […] FICIs were determined according to the Loewe additivity model ([17]).
# Lomentospora prolificans = assay: checkerboard drug interaction (FICI, MICc);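 note: simplified diagonal checkerboard screen pairing antifungals with FPPS inhibitors, FICI calculated under the Loewe additivity model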
# Method: as §1
# Aspergillus niger = assay: MIC broth microdilution (CLSI); format: cell-based; conditions: Aspergillus niger 111
# Method: (§2) Antifungal susceptibility was determined by broth microdilution according to the CLSI guidelines described in M27-Ed4 ([16]).
# Nannizzia nana = assay: MIC broth microdilution (CLSI); format: cell-based; conditions: Nannizzia nana R-133
# Method: as §2
# Paraphyton cookei [1] = assay: checkerboard drug interaction (FICI, MICc);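 note: simplified diagonal checkerboard screen pairing an antifungal with an FPPS inhibitor, FICI computed under the Loewe additivity model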
# Method: as §1
# Aspergillus terreus = assay: MIC broth microdilution (CLSI); format: cell-based; conditions: Aspergillus terreus 75-16-089-2500
# Method: as §2
# Candida auris = assay: MIC broth microdilution (CLSI); format: cell-based; conditions: Candida auris CDC-0384
# Method: as §2
# Microsporum canis [2] = assay: checkerboard drug interaction (FICI, MICc); format: cell-based;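 note: simplified diagonal checkerboard screen pairing antifungals with FPPS inhibitors, FICI calculated under the Loewe additivity model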
# Method: as §1
# Rhizopus oryzae = assay: checkerboard drug interaction (FICI, MICc); format: cell-based;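 note: simplified diagonal checkerboard screen pairing antifungals with FPPS inhibitors, FICI calculated under the Loewe additivity model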
# Method: as §1
# Aspergillus lentulus = assay: MIC broth microdilution (CLSI); format: cell-based; conditions: Aspergillus lentulus DTO 341-G7
# Method: as §2
# Candida dubliniensis = assay: MIC broth microdilution (CLSI); format: cell-based; conditions: Candida dubliniensis M230642
# Method: as §2
# Pichia kudriavzevii = assay: checkerboard drug interaction (FICI, MICc); format: cell-based;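 note: antifungal plus FPPS inhibitor interactions tested in a simplified diagonal checkerboard screen, with FICI calculated under the Loewe additivity model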
# Method: as §1
# [3] = tested on: Cryptococcus bacillisporus; assay: checkerboard drug interaction (FICI, MICc); format: cell-based;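 note: interaction of antifungals with FPPS inhibitors assessed by a simplified diagonal checkerboard screen, with FICI computed under the Loewe additivity model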
# Method: as §1
# Cryptococcus tetragattii = assay: checkerboard drug interaction (FICI, MICc); format: cell-based;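 note: simplified diagonal checkerboard screen pairing antifungals with FPPS inhibitors, with FICI calculated under the Loewe additivity model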
# Method: as §1
# Paraphyton cookei [4] = assay: MIC broth microdilution (CLSI); format: cell-based; conditions: Paraphyton cookei R-639
# Method: as §2
# [5] = tested on: Trichophyton interdigitale; assay: MIC broth microdilution (CLSI); format: cell-based; conditions: Trichophyton interdigitale R-234
# Method: as §2
# Aspergillus felis = assay: MIC broth microdilution (CLSI); format: cell-based; conditions: Aspergillus felis IHE87256683D6
# Method: as §2
# Microsporum canis [6] = assay: MIC broth microdilution (CLSI); conditions: Microsporum canis R-232
# Method: as §2
# Aspergillus udagawae = assay: checkerboard drug interaction (FICI, MICc); format: cell-based;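 note: simplified diagonal checkerboard screen pairing antifungals with FPPS inhibitors, FICI calculated using the Loewe additivity model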
# Method: as §1
compound,measurement,setting,value
"O=P(O)(O)C(O)(Cn1ccnc1)P(=O)(O)O [ZOL, zoledronate]",FICI,Nannizzia gypsea; 5FC:ZOL,3
same,FICI,Nannizzia gypsea; AMB:ZOL,0.75
same,FICI,Nannizzia gypsea; CAS:ZOL,0.75
same,FICI,Nannizzia gypsea; FLC:ZOL,0.31
same,FICI,Nannizzia gypsea; ITR:ZOL,0.38
same,FICI,Nannizzia gypsea; KET:ZOL,0.19
same,FICI,Nannizzia gypsea; VOR:ZOL,0.28
same,bisphosphonate MICc,Nannizzia gypsea; ZOL with 5FC,256
same,bisphosphonate MICc,Nannizzia gypsea; ZOL with AMB,64
same,bisphosphonate MICc,Nannizzia gypsea; ZOL with CAS,64
same,bisphosphonate MICc,Nannizzia gypsea; ZOL with FLC,16
same,bisphosphonate MICc,Nannizzia gypsea; ZOL with ITR,32
same,bisphosphonate MICc,Nannizzia gypsea; ZOL with KET,32
same,bisphosphonate MICc,Nannizzia gypsea; ZOL with VOR,8
same,FICI,Lomentospora prolificans; 5FC:ZOL,2.5
same,FICI,Lomentospora prolificans; AMB:ZOL,0.75
same,FICI,Lomentospora prolificans; CAS:ZOL,3
same,FICI,Lomentospora prolificans; FLC:ZOL,1.13
same,FICI,Lomentospora prolificans; ITR:ZOL,0.63
same,FICI,Lomentospora prolificans; KET:ZOL,1
same,FICI,Lomentospora prolificans; VOR:ZOL,1.06
same,bisphosphonate MICc,Lomentospora prolificans; ZOL with 5FC,256
same,bisphosphonate MICc,Lomentospora prolificans; ZOL with AMB,256
same,bisphosphonate MICc,Lomentospora prolificans; ZOL with CAS,512
same,bisphosphonate MICc,Lomentospora prolificans; ZOL with FLC,64
same,bisphosphonate MICc,Lomentospora prolificans; ZOL with ITR,64
same,bisphosphonate MICc,Lomentospora prolificans; ZOL with KET,256
same,bisphosphonate MICc,Lomentospora prolificans; ZOL with VOR,32
same,MIC / MEC,Aspergillus niger,>256 µg/mL
same,MIC / MEC,Nannizzia nana,128 µg/mL
same,FICI,Paraphyton cookei [1]; 5FC:ZOL,≥4
same,FICI,Paraphyton cookei [1]; AMB:ZOL,0.5
same,FICI,Paraphyton cookei [1]; CAS:ZOL,0.63
same,FICI,Paraphyton cookei [1]; FLC:ZOL,0.63
same,FICI,Paraphyton cookei [1]; ITR:ZOL,0.56
same,FICI,Paraphyton cookei [1]; KET:ZOL,0.56
same,FICI,Paraphyton cookei [1]; VOR:ZOL,0.38
same,bisphosphonate MICc,Paraphyton cookei [1]; ZOL with 5FC,128
same,bisphosphonate MICc,Paraphyton cookei [1]; ZOL with AMB,32
same,bisphosphonate MICc,Paraphyton cookei [1]; ZOL with CAS,16
same,bisphosphonate MICc,Paraphyton cookei [1]; ZOL with FLC,16
same,bisphosphonate MICc,Paraphyton cookei [1]; ZOL with ITR,8
same,bisphosphonate MICc,Paraphyton cookei [1]; ZOL with KET,8
same,bisphosphonate MICc,Paraphyton cookei [1]; ZOL with VOR,16
same,MIC / MEC,Aspergillus terreus,128 µg/mL
same,MIC / MEC,Candida auris,128 µg/mL
same,FICI,Microsporum canis [2]; 5FC:ZOL,≥4
same,FICI,Microsporum canis [2]; AMB:ZOL,0.75
same,FICI,Microsporum canis [2]; CAS:ZOL,0.56
same,FICI,Microsporum canis [2]; FLC:ZOL,0.38
same,FICI,Microsporum canis [2]; ITR:ZOL,0.75
same,FICI,Microsporum canis [2]; KET:ZOL,0.31
same,FICI,Microsporum canis [2]; VOR:ZOL,0.63
same,bisphosphonate MICc,Microsporum canis [2]; ZOL with 5FC,64
same,bisphosphonate MICc,Microsporum canis [2]; ZOL with AMB,16
same,bisphosphonate MICc,Microsporum canis [2]; ZOL with CAS,4
same,bisphosphonate MICc,Microsporum canis [2]; ZOL with FLC,8
same,bisphosphonate MICc,Microsporum canis [2]; ZOL with ITR,16
same,bisphosphonate MICc,Microsporum canis [2]; ZOL with KET,4
same,bisphosphonate MICc,Microsporum canis [2]; ZOL with VOR,8
same,FICI,Rhizopus oryzae; 5FC:ZOL,3
same,FICI,Rhizopus oryzae; AMB:ZOL,1.13
same,FICI,Rhizopus oryzae; CAS:ZOL,0.63
same,FICI,Rhizopus oryzae; FLC:ZOL,1
same,FICI,Rhizopus oryzae; ITR:ZOL,1.02
same,FICI,Rhizopus oryzae; KET:ZOL,0.63
same,FICI,Rhizopus oryzae; VOR:ZOL,0.52
same,bisphosphonate MICc,Rhizopus oryzae; ZOL with 5FC,512
same,bisphosphonate MICc,Rhizopus oryzae; ZOL with AMB,64
same,bisphosphonate MICc,Rhizopus oryzae; ZOL with CAS,256
same,bisphosphonate MICc,Rhizopus oryzae; ZOL with FLC,256
same,bisphosphonate MICc,Rhizopus oryzae; ZOL with ITR,8
same,bisphosphonate MICc,Rhizopus oryzae; ZOL with KET,64
same,bisphosphonate MICc,Rhizopus oryzae; ZOL with VOR,8
same,MIC / MEC,Aspergillus lentulus,>256 µg/mL
same,MIC / MEC,Candida dubliniensis,4 µg/mL
same,FICI,Pichia kudriavzevii; 5FC:ZOL,1.13
same,FICI,Pichia kudriavzevii; AMB:ZOL,0.63
same,FICI,Pichia kudriavzevii; CAS:ZOL,0.56
same,FICI,Pichia kudriavzevii; FLC:ZOL,0.67
same,FICI,Pichia kudriavzevii; ITR:ZOL,0.5
same,FICI,Pichia kudriavzevii; KET:ZOL,0.38
same,FICI,Pichia kudriavzevii; VOR:ZOL,2.25
same,bisphosphonate MICc,Pichia kudriavzevii; ZOL with 5FC,256
same,bisphosphonate MICc,Pichia kudriavzevii; ZOL with AMB,32
same,bisphosphonate MICc,Pichia kudriavzevii; ZOL with CAS,16
same,bisphosphonate MICc,Pichia kudriavzevii; ZOL with FLC,128
same,bisphosphonate MICc,Pichia kudriavzevii; ZOL with ITR,64
same,bisphosphonate MICc,Pichia kudriavzevii; ZOL with KET,64
same,bisphosphonate MICc,Pichia kudriavzevii; ZOL with VOR,64
same,FICI,[3]; 5FC:ZOL,1.03
same,FICI,[3]; AMB:ZOL,6
same,FICI,[3]; CAS:ZOL,1.13
same,FICI,[3]; FLC:ZOL,0.38
same,FICI,[3]; ITR:ZOL,1.29
same,FICI,[3]; KET:ZOL,1.02
same,FICI,[3]; VOR:ZOL,2.33
same,bisphosphonate MICc,[3]; ZOL with 5FC,128
same,bisphosphonate MICc,[3]; ZOL with AMB,256
same,bisphosphonate MICc,[3]; ZOL with CAS,16
same,bisphosphonate MICc,[3]; ZOL with FLC,32
same,bisphosphonate MICc,[3]; ZOL with ITR,32
same,bisphosphonate MICc,[3]; ZOL with KET,2
same,bisphosphonate MICc,[3]; ZOL with VOR,32
same,FICI,Cryptococcus tetragattii; 5FC:ZOL,1.13
same,FICI,Cryptococcus tetragattii; AMB:ZOL,1.25
same,FICI,Cryptococcus tetragattii; CAS:ZOL,2.5
same,FICI,Cryptococcus tetragattii; FLC:ZOL,0.5
same,FICI,Cryptococcus tetragattii; ITR:ZOL,2.06
same,FICI,Cryptococcus tetragattii; KET:ZOL,0.75
same,FICI,Cryptococcus tetragattii; VOR:ZOL,1.46
same,bisphosphonate MICc,Cryptococcus tetragattii; ZOL with 5FC,64
same,bisphosphonate MICc,Cryptococcus tetragattii; ZOL with AMB,64
same,bisphosphonate MICc,Cryptococcus tetragattii; ZOL with CAS,32
same,bisphosphonate MICc,Cryptococcus tetragattii; ZOL with FLC,16
same,bisphosphonate MICc,Cryptococcus tetragattii; ZOL with ITR,4
same,bisphosphonate MICc,Cryptococcus tetragattii; ZOL with KET,16
same,bisphosphonate MICc,Cryptococcus tetragattii; ZOL with VOR,32
same,MIC / MEC,Paraphyton cookei [4],128 µg/mL
same,MIC / MEC,[5],256 µg/mL
same,MIC / MEC,Aspergillus felis,>256 µg/mL
same,MIC / MEC,Microsporum canis [6],64 µg/mL
same,FICI,Aspergillus udagawae; 5FC:ZOL,≥4
same,FICI,Aspergillus udagawae; AMB:ZOL,0.63
same,FICI,Aspergillus udagawae; CAS:ZOL,2
same,FICI,Aspergillus udagawae; FLC:ZOL,1.01
same,FICI,Aspergillus udagawae; ITR:ZOL,1
same,FICI,Aspergillus udagawae; KET:ZOL,0.75

# Reference: article PMC12892976, “Alkylation-based optimization of antifungal FPPS inhibitors yields a potent, broad-spectrum lipophilic zoledronate derivative” (mBio, 2025)
